Test system: microbial proteins in vaginal fluid
Assay: MS/MS proteomic analysis of vaginal fluid pools before and after rifaximin/placebo treatment: microbial proteins
Assay type: in vivo
Procedure: Proteomic analysis was performed on 9 pools of vaginal isolates, grouped according to the status of the BV infection: • H pool (from 41 healthy women); BV pool (from 39 BV-affected women); • A-R pool (from 2 women who were in remission after rifaximin treatment-group A); • A-N pool (from 8 women who were not in remission after rifaximin treatment-group A); • B-R pool (from 5 women who were in remission after rifaximin treatment-group B); • B-N pool (from 5 women who were not in remission after rifaximin treatment-group B); • C-R pool (from 4 women who were in remission after rifaximin treatment-group C); • C-N (from 5 women who were not in remission after rifaximin treatment-group C); • D-N (from 10 women who were not in remission after placebo treatment-group D). Scheme of the vaginal fluids collected for testing the diagnostic method is represented in FIG. 1.
In these figures are reported the peptides in the fractionated pools of healthy women, women affected by BV and peptides of women treated with rifaximin. The treatment with rifaximin was at dosage of 100 mg/day for 5 days; (remission, A-R; no remission, A-N), 25 mg/5 days (remission, B-R; no remission, B-N), 100 mg/2 days (remission, C-R; no remission, C-N), and placebo for 5 days (D-N). Two types of comparisons were carried out: (i) between fractionated pools of proteins from vaginal fluid of healthy women (HF) versus fractionated pool of proteins from vaginal fluid of women affected by bacterial vaginosis (BVF); (ii) between whole pools of proteins from vaginal fluid of women affected by BV treated by administering different doses of rifaximin or placebo before (BV) and after (A-R, A-N, B-R, B-N, C-R, C-N, D-N) treatment. Fractioned pools of proteins are obtained, e.g., by separating the proteins by separation on membrane filtration with different membrane porosity, prior to MS/MS analysis.
Nine volumes of acetone: HCl (10:1) were added to the supernatant of the vaginal rinsing and proteins were precipitated by centrifuging at 12000 g for 10 min. The protein pellet was dissolved in 1 mL of 70% ethanol and the sample was spun at 12000 g for 10 min. One mL of acetone was added and the proteins were further precipitated by centrifugation at 12000 g for 5 min. After removing supernatant, pellet was dried by SpeedVac concentrator (Thermo Savant ISS110, Thermo Fisher Scientific, Waltham, Mass.) and then stored at −20° C.
Protein extract was quantified using the 2-D Quant Kit (GE Healthcare, Uppsala, Sweden) according to the manufacturer's instructions.
Patients who were diagnosed for BV at the study visit V1 were included in a multicentre, double-blind, randomised, placebo-controlled study (EudraCT: 2009-011826-32), that was performed to compare the efficacy of different doses of rifaximin vaginal tablets versus placebo for the treatment of BV. The patients underwent a randomisation visit and were distributed into 4 treatment groups: group A received 100 mg rifaximin vaginal tablet once daily for 5 days (n=10), group B received 25 mg rifaximin vaginal tablet once daily for 5 days (n=10), group C received 100 mg rifaximin vaginal tablet once daily for the first 2 days and placebo vaginal tablet for the remaining 3 days (n=9), group D received placebo vaginal tablet once daily for 5 days (n=10). Study medication was administered intra-vaginally at bedtime. After 7 to 10 days from the end of the therapy a follow-up visit (V3) was performed. Remission was evaluated at V3 according to Amsel's criteria (<3) and Gram stain Nugent score (≦3) (Table 1).
Standardized vaginal rinsings with 2 mL of saline were collected for analysis at V1 and V3 by flushing and re-aspirating the fluid through a 22 Gauge needle in the left, central and right upper vaginal vaults. The vaginal rinsings were subsequently stored at −80° C. until use.
MS/MS analysis was carried out for H and BV pools and for the whole BV, A-R, A-N, B-R, B-N, C-R, C-N and D-N pools containing 50 μg of protein each. […]

[1] = up-regulated in all pools (rifaximin and placebo) vs BV

CO[C@H]1/C=C/O[C@@]2(C)Oc3c(C)c(O)c4c(O)c(c5c(nc6cc(C)ccn65)c4c3C2=O)NC(=O)/C(C)=C\C=C\[C@H](C)[C@H](O)[C@@H](C)[C@@H](O)[C@@H](C)[C@H](OC(C)=O)[C@@H]1C [rifaximin]
fold change of Phosphoglycerate kinase from L. gasseri (A-R pool, over-expressed in A-N, B-R, C-R and D-N pools): −22.1 fold
expression change of Pyruvate kinase from L. delbrueckii subsp. bulgaricus (affected only in A-R pool): 1.5 ratio
expression change of Triosephosphate isomerase from L. delbrueckii subsp. bulgaricus (affected only in B-N pool): 2.4 ratio
median expression change of trigger factor from L. brevis (down-regulated in all pools after rifaximin treatment): −2.5 ratio
Ratio X/H Ribosome-recycling factor OS = Bifidobacterium longum subsp. infantis (B7GQS1) (pool A-N after treatment): −1.2
Ratio X/H Trigger factor OS = Lactobacillus brevis (Q03QN6) (pool A-N after treatment): −2.4
Ratio X/H Triosephosphate isomerase OS = Lactobacillus delbrueckii subsp. bulgaricus (Q1GB25) (pool A-N after treatment): −1.2
Ratio X/H UPF0082 protein SAB0618 OS = Staphylococcus aureus (Q2YSR2) (pool A-N after treatment): 5.6
Ratio X/H Uncharacterized membrane protein YAL018C OS = Saccharomyces cerevisiae (P31379) (pool A-N after treatment): 2.0
Ratio X/H Uncharacterized protein yphG OS = Escherichia coli (P76585) (pool A-N after treatment): −4.3
Ratio X/H Ribosome-recycling factor OS = Bifidobacterium longum subsp. infantis (B7GQS1) (pool A-R after treatment): −4.5
Ratio X/H Trigger factor OS = Lactobacillus brevis (Q03QN6) (pool A-R after treatment): −3.8
Ratio X/H Triosephosphate isomerase OS = Lactobacillus delbrueckii subsp. bulgaricus (Q1GB25) (pool A-R after treatment): −1.3
Ratio X/H UPF0082 protein SAB0618 OS = Staphylococcus aureus (Q2YSR2) (pool A-R after treatment): 9.3
Ratio X/H Uncharacterized membrane protein YAL018C OS = Saccharomyces cerevisiae (P31379) (pool A-R after treatment): 1.1
Ratio X/H Uncharacterized protein yphG OS = Escherichia coli (P76585) (pool A-R after treatment): 1.1
Ratio X/H Ribosome-recycling factor OS = Bifidobacterium longum subsp. infantis (B7GQS1) (pool B-N after treatment): −1.1
Ratio X/H Trigger factor OS = Lactobacillus brevis (Q03QN6) (pool B-N after treatment): −2.1
Ratio X/H Triosephosphate isomerase OS = Lactobacillus delbrueckii subsp. bulgaricus (Q1GB25) (pool B-N after treatment): 2.4
Ratio X/H UPF0082 protein SAB0618 OS = Staphylococcus aureus (Q2YSR2) (pool B-N after treatment): 9.2
Ratio X/H Uncharacterized membrane protein YAL018C OS = Saccharomyces cerevisiae (P31379) (pool B-N after treatment): 2.0
Ratio X/H Uncharacterized protein yphG OS = Escherichia coli (P76585) (pool B-N after treatment): −1.1
Ratio X/H Ribosome-recycling factor OS = Bifidobacterium longum subsp. infantis (B7GQS1) (pool B-R after treatment): −2.4
Ratio X/H Trigger factor OS = Lactobacillus brevis (Q03QN6) (pool B-R after treatment): −2.2
Ratio X/H Triosephosphate isomerase OS = Lactobacillus delbrueckii subsp. bulgaricus (Q1GB25) (pool B-R after treatment): −1.2
Ratio X/H UPF0082 protein SAB0618 OS = Staphylococcus aureus (Q2YSR2) (pool B-R after treatment): 10.5
Ratio X/H Uncharacterized membrane protein YAL018C OS = Saccharomyces cerevisiae (P31379) (pool B-R after treatment): 2.9
Ratio X/H Uncharacterized protein yphG OS = Escherichia coli (P76585) (pool B-R after treatment): 1.1
Ratio X/H Ribosome-recycling factor OS = Bifidobacterium longum subsp. infantis (B7GQS1) (pool C-N after treatment): 1.0
Ratio X/H Trigger factor OS = Lactobacillus brevis (Q03QN6) (pool C-N after treatment): −3.2
Ratio X/H Triosephosphate isomerase OS = Lactobacillus delbrueckii subsp. bulgaricus (Q1GB25) (pool C-N after treatment): −1.3
Ratio X/H UPF0082 protein SAB0618 OS = Staphylococcus aureus (Q2YSR2) (pool C-N after treatment): 5.9
Ratio X/H Uncharacterized membrane protein YAL018C OS = Saccharomyces cerevisiae (P31379) (pool C-N after treatment): 4.2
Ratio X/H Uncharacterized protein yphG OS = Escherichia coli (P76585) (pool C-N after treatment): −1.1
Ratio X/H Ribosome-recycling factor OS = Bifidobacterium longum subsp. infantis (B7GQS1) (pool C-R after treatment): −2.8
Ratio X/H Trigger factor OS = Lactobacillus brevis (Q03QN6) (pool C-R after treatment): −2.7
Ratio X/H Triosephosphate isomerase OS = Lactobacillus delbrueckii subsp. bulgaricus (Q1GB25) (pool C-R after treatment): −1.4
Ratio X/H UPF0082 protein SAB0618 OS = Staphylococcus aureus (Q2YSR2) (pool C-R after treatment): 8.9
Ratio X/H Uncharacterized membrane protein YAL018C OS = Saccharomyces cerevisiae (P31379) (pool C-R after treatment): −1.6
Ratio X/H Uncharacterized protein yphG OS = Escherichia coli (P76585) (pool C-R after treatment): 1.0
median down-regulation of Malate dehydrogenase from S. cerevisiae (pools after treatment vs BV): −2.3 fold
median expression change of enolases from L. acidophilus, L. delbrueckii subsp. bulgaricus, L. gasseri (trend of down-regulation in response to antibiotic administration): −2.7 ratio
median expression change of Phosphoglycerate kinase from U. parvum [1]: 5.1 ratio
median expression change of UPF0082 protein SAB0618 from S. aureus [1]: 8.9 ratio

Source: patent US20160047819A1, “METHOD FOR DIAGNOSING VAGINAL INFECTIONS” (priority 2013, published 2016)
